According to article PMC11230492, “Targeting Unique Ligand Binding Domain Structural Features Downregulates DKK1 in Y537S ESR1 Mutant Breast Cancer Cells” (Research Square, 2024):

Molecular target: T1, estrogen receptor alpha (ERα) ligand binding domain (Homo sapiens, UniProt P03372, C381S/C417S/C530S/Y537S)
T1 construct: gene ESR1
T1 sequence (P03372 300-550 C381S/C417S/C530S/Y537S): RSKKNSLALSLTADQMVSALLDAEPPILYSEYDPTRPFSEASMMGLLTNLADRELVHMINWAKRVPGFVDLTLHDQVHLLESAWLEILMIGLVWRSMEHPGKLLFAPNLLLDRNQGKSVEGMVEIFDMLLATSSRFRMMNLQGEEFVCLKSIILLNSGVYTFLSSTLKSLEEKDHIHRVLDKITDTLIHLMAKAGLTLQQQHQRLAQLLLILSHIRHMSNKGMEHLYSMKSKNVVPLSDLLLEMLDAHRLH
Experiment: X-ray co-crystal structure, […] Å

In the case of `O=C(c1ccccc1)N1C(c2ccc(OCC3CCN(CCCF)C3)cc2)c2ccc(O)cc2CC12CC2` (stereo not shown) [T6I-29], the “X-ray co-crystal structure, 2.20 Å” value was “we solved an x-ray co-crystal structure of T6I-29 in complex with Y537S ERα LBD”.
